# Test results taken from patent publication US20080234276A1, “Heterocyclic Triazines as Hypoxic Selective Protein Kinase Inhibitors” (SENTINEL ONCOLOGY LIMITED, priority 2005, published 2008).
# Key:
# Assay type in all cases: biochemical
# [1] = biological target: T1, Arg (h) (Homo sapiens, UniProt P42684); assay: Arg (h) kinase assay (Upstate, 33P-ATP filtermat); details: 100 uM of inhibitor; ATP 45 uM
# T1 construct: purchased Upstate Ltd
# Method: (§1) The compounds of the invention prepared in Examples 1-32 were tested for kinase inhibition against a range of common protein kinases. All kinase assays were conducted at Upstate Ltd, Gemini Crescent, Dundee Technology Park, Dundee, DD2 1SW, UK in accordance with its standard protocols as follows:
# (§2) In a final reaction volume of 25 μl, Arg (h) (5-10 mU) is incubated with 8 mM MOPS pH 7.0, 0.2 mM EDTA, 50 μM EAIYAAPFAKKK, 10 mM MgAcetate and [[…]-33P-ATP] (specific activity approx. 500 cpm/pmol, concentration as required). The reaction is initiated by the addition of the MgATP mix. After incubation for 40 minutes at room temperature, the reaction is stopped by the addition of 5 μl of a 3% phosphoric acid solution. 10 μl of the reaction is then spotted onto a P30 filtermat and washed three times for 5 minutes in 75 mM phosphoric acid and once in methanol prior to drying and scintillation counting.
# (§3) Data for compounds. ATP concentrations are: Arg=45 uM; abl=45 uM; AuroraA=15 uM; Chk1=90 uM; KDR=90 uM; P70S6=15 uM. Figures represent the % inhibition when tested at 100 uM of inhibitor.
# [2] = biological target: T2, Abl (h) (Homo sapiens, UniProt P00519); assay: Abl (h) kinase assay (Upstate, 33P-ATP filtermat); details: 100 uM of inhibitor; ATP 45 uM
# T2 construct: purchased Upstate Ltd
# Method: as §1
# as §2, with “Abl” for “Arg”
# as §3
# [3] = biological target: T3, p70S6K (h) (Homo sapiens, UniProt P23443); assay: p70S6K (h) kinase assay (Upstate, 33P-ATP filtermat); details: 100 uM of inhibitor, ATP 15 uM; for inhibition at 100 µM: read-out: P70S6 (h) % inhibition
# T3 construct: purchased Upstate Ltd
# Method: as §1
# as §2, with “μl, p70S6K” for “μl, Arg”, “EDTA, 100” for “EDTA, 50”, “μM KKRNRTLTV,” for “μM EAIYAAPFAKKK,”
# as §3
# [4] = biological target: T4, Aurora-A (h) (Homo sapiens, UniProt O14965); assay: Aurora-A (h) kinase assay (Upstate, 33P-ATP filtermat); details: 100 uM of inhibitor, ATP 15 uM; for inhibition at 100 µM: read-out: AuroraA (h) % inhibition
# T4 construct: purchased Upstate Ltd
# T4 sequence (O14965 1-403): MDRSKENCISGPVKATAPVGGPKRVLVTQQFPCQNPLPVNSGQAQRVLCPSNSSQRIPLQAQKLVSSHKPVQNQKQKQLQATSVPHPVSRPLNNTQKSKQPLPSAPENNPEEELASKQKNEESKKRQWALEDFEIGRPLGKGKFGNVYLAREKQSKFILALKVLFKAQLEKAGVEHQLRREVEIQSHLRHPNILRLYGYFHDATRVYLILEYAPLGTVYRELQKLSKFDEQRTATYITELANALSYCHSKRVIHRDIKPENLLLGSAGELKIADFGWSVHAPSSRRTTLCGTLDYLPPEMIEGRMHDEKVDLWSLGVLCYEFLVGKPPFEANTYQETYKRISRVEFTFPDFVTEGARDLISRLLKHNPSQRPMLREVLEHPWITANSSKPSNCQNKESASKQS
# Method: as §1
# as §2, with “μl, Aurora-A” for “μl, Arg”, “EDTA, 200” for “EDTA, 50”, “μM LRRASLG (Kemptide),” for “μM EAIYAAPFAKKK,”, “and […]-33P-ATP]” for “and [[…]-33P-ATP]”, “in 50” for “in 75”
# as §3
# [5] = biological target: T5, CHK1 (h) (Homo sapiens, UniProt O14757); assay: CHK1 (h) kinase assay (Upstate, 33P-ATP filtermat); details: 100 uM of inhibitor; ATP 90 uM
# T5 construct: purchased Upstate Ltd
# T5 sequence (O14757 1-476): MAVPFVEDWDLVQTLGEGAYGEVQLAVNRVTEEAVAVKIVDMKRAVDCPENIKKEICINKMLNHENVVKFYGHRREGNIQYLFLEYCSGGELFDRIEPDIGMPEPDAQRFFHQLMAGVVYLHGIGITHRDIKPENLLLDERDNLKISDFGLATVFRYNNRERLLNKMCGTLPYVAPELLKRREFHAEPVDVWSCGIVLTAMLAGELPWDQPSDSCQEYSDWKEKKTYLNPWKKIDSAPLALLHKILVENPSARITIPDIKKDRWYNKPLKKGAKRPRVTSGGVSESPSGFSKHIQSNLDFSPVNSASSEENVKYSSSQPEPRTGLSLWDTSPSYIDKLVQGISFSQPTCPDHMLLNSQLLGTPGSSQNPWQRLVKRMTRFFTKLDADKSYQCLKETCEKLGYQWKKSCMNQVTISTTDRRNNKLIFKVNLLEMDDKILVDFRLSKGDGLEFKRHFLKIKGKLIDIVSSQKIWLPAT
# Method: as §1
# as §2, with “μl, CHK1” for “μl, Arg”, “EDTA, 200” for “EDTA, 50”, “μM […],” for “μM EAIYAAPFAKKK,”, “and […]-33P-ATP]” for “and [[…]-33P-ATP]”
# as §3
# [6] = biological target: T6, KDR (h) (Homo sapiens, UniProt P35968); assay: KDR (h) kinase assay (Upstate, 33P-ATP filtermat); details: 100 uM of inhibitor; ATP 90 uM
# T6 construct: purchased Upstate Ltd
# Method: as §1
# as §2, with “KDR” for “Arg”, “0.33 mg/ml myelin basic protein,” for “50 μM EAIYAAPFAKKK,”
# as §3
# T3 sequence (P23443 whole entry): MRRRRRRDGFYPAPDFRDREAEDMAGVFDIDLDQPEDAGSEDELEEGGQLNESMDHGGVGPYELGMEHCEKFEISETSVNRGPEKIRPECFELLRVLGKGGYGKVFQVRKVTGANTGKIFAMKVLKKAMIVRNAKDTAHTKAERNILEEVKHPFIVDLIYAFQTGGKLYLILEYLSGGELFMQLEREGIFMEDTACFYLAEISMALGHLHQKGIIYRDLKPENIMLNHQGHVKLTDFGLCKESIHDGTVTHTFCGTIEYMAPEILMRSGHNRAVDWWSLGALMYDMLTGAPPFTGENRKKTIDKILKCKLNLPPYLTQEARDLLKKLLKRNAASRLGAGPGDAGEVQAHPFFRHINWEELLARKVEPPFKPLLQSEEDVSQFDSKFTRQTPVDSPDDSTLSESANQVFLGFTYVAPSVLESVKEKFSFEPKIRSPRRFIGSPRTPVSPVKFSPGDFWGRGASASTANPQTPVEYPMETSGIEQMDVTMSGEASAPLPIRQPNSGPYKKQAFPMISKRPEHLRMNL
# T2 sequence (P00519 whole entry): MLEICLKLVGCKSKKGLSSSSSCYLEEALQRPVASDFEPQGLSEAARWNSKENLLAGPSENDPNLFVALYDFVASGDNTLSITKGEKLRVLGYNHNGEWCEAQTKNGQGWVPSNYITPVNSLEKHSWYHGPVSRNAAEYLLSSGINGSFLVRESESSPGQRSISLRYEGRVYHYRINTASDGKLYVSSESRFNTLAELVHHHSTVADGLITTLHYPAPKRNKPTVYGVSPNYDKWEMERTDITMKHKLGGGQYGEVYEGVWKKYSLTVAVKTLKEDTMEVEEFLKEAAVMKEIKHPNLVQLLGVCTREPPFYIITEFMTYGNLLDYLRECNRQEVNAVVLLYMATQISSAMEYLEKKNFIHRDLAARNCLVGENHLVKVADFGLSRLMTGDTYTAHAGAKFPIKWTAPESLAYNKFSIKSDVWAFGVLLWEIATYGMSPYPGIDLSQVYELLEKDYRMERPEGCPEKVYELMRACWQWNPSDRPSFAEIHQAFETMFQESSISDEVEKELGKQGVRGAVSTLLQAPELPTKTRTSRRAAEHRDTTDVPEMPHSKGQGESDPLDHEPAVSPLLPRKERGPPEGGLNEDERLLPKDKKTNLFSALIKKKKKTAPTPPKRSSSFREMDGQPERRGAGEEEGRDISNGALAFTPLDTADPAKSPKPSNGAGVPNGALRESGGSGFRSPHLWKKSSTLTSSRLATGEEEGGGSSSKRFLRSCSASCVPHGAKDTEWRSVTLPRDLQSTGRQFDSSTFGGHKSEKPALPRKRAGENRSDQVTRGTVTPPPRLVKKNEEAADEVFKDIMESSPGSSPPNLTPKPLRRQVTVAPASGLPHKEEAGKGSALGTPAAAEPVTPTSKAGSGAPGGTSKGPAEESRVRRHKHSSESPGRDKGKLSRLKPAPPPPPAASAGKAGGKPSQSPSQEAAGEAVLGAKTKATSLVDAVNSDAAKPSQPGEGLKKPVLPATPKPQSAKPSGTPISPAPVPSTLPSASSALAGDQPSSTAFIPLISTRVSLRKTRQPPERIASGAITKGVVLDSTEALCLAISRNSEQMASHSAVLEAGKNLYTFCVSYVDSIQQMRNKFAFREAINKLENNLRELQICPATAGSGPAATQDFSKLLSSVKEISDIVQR
# T1 sequence (P42684 whole entry): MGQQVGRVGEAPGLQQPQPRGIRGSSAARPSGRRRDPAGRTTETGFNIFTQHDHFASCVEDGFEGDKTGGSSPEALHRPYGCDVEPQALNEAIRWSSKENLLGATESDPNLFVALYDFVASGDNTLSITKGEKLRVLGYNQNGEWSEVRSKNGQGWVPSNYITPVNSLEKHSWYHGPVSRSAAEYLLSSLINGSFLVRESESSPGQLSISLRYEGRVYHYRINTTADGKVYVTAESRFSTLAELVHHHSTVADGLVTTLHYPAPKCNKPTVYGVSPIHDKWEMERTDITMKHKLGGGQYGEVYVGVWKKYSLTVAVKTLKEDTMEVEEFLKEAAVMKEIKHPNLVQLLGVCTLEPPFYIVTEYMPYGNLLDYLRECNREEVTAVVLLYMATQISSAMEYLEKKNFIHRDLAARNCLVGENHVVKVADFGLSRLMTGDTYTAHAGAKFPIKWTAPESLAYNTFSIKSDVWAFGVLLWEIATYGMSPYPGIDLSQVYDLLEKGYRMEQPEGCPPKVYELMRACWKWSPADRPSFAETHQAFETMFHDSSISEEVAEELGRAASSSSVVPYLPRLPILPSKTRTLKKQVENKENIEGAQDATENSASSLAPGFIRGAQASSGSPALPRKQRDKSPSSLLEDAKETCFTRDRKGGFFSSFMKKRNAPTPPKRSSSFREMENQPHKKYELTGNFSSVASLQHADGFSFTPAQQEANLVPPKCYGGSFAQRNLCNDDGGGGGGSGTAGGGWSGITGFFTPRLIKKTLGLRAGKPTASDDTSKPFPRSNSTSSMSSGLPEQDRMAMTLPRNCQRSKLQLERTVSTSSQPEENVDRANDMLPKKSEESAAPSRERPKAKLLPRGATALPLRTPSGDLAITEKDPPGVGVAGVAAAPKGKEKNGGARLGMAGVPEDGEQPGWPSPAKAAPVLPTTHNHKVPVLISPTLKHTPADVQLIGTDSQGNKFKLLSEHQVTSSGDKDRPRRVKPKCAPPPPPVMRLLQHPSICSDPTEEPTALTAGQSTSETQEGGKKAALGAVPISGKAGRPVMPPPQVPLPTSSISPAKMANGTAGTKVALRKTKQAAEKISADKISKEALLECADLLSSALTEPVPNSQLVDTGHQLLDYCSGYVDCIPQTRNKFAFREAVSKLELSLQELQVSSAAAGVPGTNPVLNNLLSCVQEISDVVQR
# T6 sequence (P35968 20-1356): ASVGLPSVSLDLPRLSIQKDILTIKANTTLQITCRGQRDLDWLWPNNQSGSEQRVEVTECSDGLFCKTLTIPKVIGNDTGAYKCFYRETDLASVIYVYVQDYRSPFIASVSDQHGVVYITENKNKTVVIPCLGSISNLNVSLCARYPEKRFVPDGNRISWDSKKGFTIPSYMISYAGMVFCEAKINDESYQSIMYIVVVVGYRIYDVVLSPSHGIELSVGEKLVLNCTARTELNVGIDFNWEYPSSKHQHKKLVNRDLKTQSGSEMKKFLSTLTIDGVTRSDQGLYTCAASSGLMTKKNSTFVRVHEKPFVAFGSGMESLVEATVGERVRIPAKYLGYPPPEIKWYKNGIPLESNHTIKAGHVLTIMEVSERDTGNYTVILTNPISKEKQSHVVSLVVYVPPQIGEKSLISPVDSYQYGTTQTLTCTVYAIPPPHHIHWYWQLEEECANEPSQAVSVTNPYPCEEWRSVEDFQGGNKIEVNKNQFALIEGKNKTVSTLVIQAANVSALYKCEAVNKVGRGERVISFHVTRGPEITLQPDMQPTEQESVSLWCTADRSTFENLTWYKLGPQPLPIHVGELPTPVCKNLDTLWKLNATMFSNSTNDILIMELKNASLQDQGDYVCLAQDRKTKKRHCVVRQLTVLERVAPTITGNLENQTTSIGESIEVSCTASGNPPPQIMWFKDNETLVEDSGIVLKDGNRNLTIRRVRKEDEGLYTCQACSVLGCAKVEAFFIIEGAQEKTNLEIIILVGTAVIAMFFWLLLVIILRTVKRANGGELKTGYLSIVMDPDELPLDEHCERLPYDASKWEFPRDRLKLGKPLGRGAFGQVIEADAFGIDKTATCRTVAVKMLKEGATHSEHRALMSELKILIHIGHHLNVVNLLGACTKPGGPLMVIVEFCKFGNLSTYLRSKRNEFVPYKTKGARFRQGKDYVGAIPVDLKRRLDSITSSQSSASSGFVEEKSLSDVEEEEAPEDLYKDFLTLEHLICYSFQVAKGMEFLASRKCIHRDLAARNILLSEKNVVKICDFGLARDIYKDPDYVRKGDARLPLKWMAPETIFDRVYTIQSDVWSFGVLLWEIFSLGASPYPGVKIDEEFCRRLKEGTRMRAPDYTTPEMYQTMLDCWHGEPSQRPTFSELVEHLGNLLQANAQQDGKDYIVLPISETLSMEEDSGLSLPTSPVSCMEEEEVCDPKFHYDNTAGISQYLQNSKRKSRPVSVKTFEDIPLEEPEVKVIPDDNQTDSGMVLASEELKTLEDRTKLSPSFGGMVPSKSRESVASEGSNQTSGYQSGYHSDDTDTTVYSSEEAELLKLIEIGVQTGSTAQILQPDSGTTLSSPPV
Compound,inhibition at 100 µM [1] [%],inhibition at 100 µM [2] [%],inhibition at 100 µM [3] [%],inhibition at 100 µM [4] [%],inhibition at 100 µM [5] [%],Arg (h) % inhibition [1] [%],Abl (h) % inhibition [2] [%],AuroraA (h) % inhibition [4] [%],Chk1 (h) % inhibition [5] [%],P70S6 (h) % inhibition [3] [%],KDR (h) % inhibition [6] [%],inhibition at 100 µM [6] [%]
"c1cncc(Nc2nnc3ccccc3n2)c1 [Example 3, Benzo[1,2,4]triazin-3-yl-pyridin-3-yl-amine]",71,65,9,68,21,–,–,–,–,–,–,–
"[O-][n+]1nc(Nc2ccc(N3CCNCC3)cc2)nc2ccccc21 [Example 5, (1-Oxy-benzo[1,2,4]triazin-3-yl)-(4-piperazin-1-yl-phenyl)-amine]",–,–,–,–,–,78,83,24,7,–,–,–
"[O-][n+]1nc(Nc2ccc(N3CCNCC3)nc2)nc2ccccc21 [Example 20, (1-Oxy-benzo[1,2,4]triazin-3-yl)-(6-piperazin-1-yl-pyridin-3-yl)-amine]",–,–,–,–,–,77,72,52,1,–,–,–

# Next, values leading:
inhibition at 100 µM [1] [%],inhibition at 100 µM [2] [%],inhibition at 100 µM [3] [%],inhibition at 100 µM [4] [%],inhibition at 100 µM [5] [%],Arg (h) % inhibition [1] [%],Abl (h) % inhibition [2] [%],AuroraA (h) % inhibition [4] [%],Chk1 (h) % inhibition [5] [%],P70S6 (h) % inhibition [3] [%],KDR (h) % inhibition [6] [%],inhibition at 100 µM [6] [%],Compound
92,89,–,41,33,–,–,–,–,–,–,–,"c1ccc2nc(Nc3ccc(N4CCNCC4)cc3)nnc2c1 [Example 6, Benzo[1,2,4]triazin-3-yl-(4-piperazin-1-yl-phenyl)-amine]"
–,–,–,–,–,81,86,98,31,99,98,–,"Nc1nc2ccc(-c3cn[nH]c3)cc2[n+]([O-])n1 [Example 7, 1-Oxy-7-(1H-pyrazol-4-yl)-benzo[1,2,4]triazin-3-ylamine]"
82,87,97,100,26,–,–,–,–,–,–,96,"Nc1nnc2cc(-c3cn[nH]c3)ccc2n1 [Example 8, 7-(1H-Pyrazol-4-yl)-benzo[1,2,4]triazin-3-ylamine]"
40,36,–,37,32,–,–,–,–,–,–,–,"Cc1cc(Nc2nnc3ccccc3n2)n[nH]1 [Example 11, Benzo[1,2,4]triazin-3-yl-(5-methyl-1H-pyrazol-3-yl)-amine]"
